Columns and labels:
[1] = system: excised Langendorff perfused hearts; assay: Isoproterenol dose response in excised Langendorff perfused hearts (β-adrenergic stimulation); design: species or system Sprague-Dawley rats
Procedure: At nine weeks of age rats were anesthetized with an IP injection of 0.2 mL Telazol and subject to isoflurane inhalation. Following cessation of pain reflexes, hearts were rapidly excised (n=26) and Langendorff perfused via the aorta at constant pressure (65 mmHg) and temperature (37° C.) with a Krebs-Henseleit solution containing (in mM) 115 NaCl, 3.3 KCl, 2.0 CaCl2, 1.4 MgSO4, 25.0 NaHCO3, 1.0 KH2PO4, 5.0 glucose, and 1.0 lactate. Perfusate was oxygenated with 95% 02-5% CO2. After a stabilization period of 10 minutes, a size 5 balloon (Harvard Apparatus) was inserted into the LV to measure isovolumic LV developed pressure (LVDP). Diastolic pressure was set to 10 mmHg and LVDP was computed as the difference between systolic and diastolic pressures. HR, LVDP, and coronary flow rate (CFR) were measured for at least 15 minutes during sinus rhythm. An isoproterenol (16504, Sigma Aldrich) dose response protocol was then administered using concentrations of 0.01, 0.1, 1, 10, 100, 1000 nM, and HR, LVDP, and CFR were measured at each concentration once function stabilized. After each study, rate pressure product (RPP), an indirect measure of LV work, was calculated as the product of HR and LVDP. Contractility and relaxation were measured as the maximum and minimum values of the first derivative of the LVP waveform, respectively, to assess inotropy and lusitropy.
Measurements in each group were compared using analysis of variance with Tukey post-hoc comparisons (Minitab 17 Statistical Software) to identify significant differences between groups. Myocyte area measurements were analyzed using fully nested ANOVA to account for both number of cells and number of animals. The isoproterenol dose response data was analyzed using a general linear model (GLM) to evaluate the group effect and the isoproterenol dose effect. Tukey post-hoc tests identified pairwise changes between groups at each isoproterenol concentration. Differences were considered significant if p<0.05.

[2] = system: myocardial ischemia-reperfusion; conditions: intra-cerebroventricular administration, rats with daily restraint stress; cited from earlier work
[3] = Control hearts, isoproterenol 1000 nM

SMILES | Contractility at the highest isoproterenol concentration [1, 3] | RPP at the highest isoproterenol concentration [1, 3] | Relaxation at the highest isoproterenol concentration [1, 3] | CFR at the highest isoproterenol concentration ([1]; Control hearts, isoproterenol 1000 nM, baseline 13.3±2.4 mL/min) | CFR, average for all isoproterenol concentrations ([1]; untreated TAC hearts) | Maximum contractility rate in the isoproterenol protocol ([1]; untreated TAC hearts) | Minimum relaxation rate in the isoproterenol protocol ([1]; untreated TAC hearts) | RPP at the highest isoproterenol concentration ([1]; untreated TAC hearts, isoproterenol 1000 nM) | Cardiac injury following ischemia reperfusion [2]
CC(C)NCC(O)c1ccc(O)c(O)c1 (stereo not drawn) [isoproterenol] | 7,164±788 mmHg/s | 52,741±14,328 mmHg*bpm | −5,402±484 mmHg/s | 25.3 ± 3.7 mL/min | 8.4 ± 0.8 mL/min | 2,322±364 mmHg/s | −2,023±361 mmHg/s | 21,787±3998 mmHg*bpm | –
CC[C@H](C)[C@@H]1NC(=O)[C@H](Cc2ccc(O)cc2)NC(=O)[C@@H](N)CSSC[C@@H](C(=O)N2CCC[C@H]2C(=O)N[C@@H](CC(C)C)C(=O)NCC(N)=O)NC(=O)[C@H](CC(N)=O)NC(=O)[C@H](CCC(N)=O)NC1=O [oxytocin] | – | – | – | – | – | – | – | – | reduced the cardiac injury
